In ChEMBL document CHEMBL1151548 (1995):

Test system: Mus musculus
Assay: Antimalarial activity against Plasmodium berghei K173 in mice (Mus musculus) by peroral administration using peanut oil
Format: functional

`C[C@@H]1CC[C@H]2[C@@H](C)C(Nc3ccc(Br)cc3)O[C@@H]3O[C@@]4(C)CC[C@@H]1[C@]32OO4` (stereo partly specified) was tested, and the SD50 was 2.7 mg/kg/day and the SD90 was 9.1 mg/kg/day.
Compound `Cc1ccc(NC2O[C@@H]3O[C@@]4(C)CC[C@H]5[C@H](C)CC[C@@H]([C@H]2C)[C@@]35OO4)cc1` (stereo partly specified) has an SD50 of 2.77 mg/kg/day and an SD90 of 6.08 mg/kg/day.
Compound `C[C@@H]1CC[C@H]2[C@@H](C)C(Nc3cccc(C(=O)O)c3)O[C@@H]3O[C@@]4(C)CC[C@@H]1[C@]32OO4` (stereo partly specified) has an SD50 of 2.76 mg/kg/day and an SD90 of 8.23 mg/kg/day.
With `C[C@@H]1CC[C@H]2[C@@H](C)C(Nc3cccc(Cl)c3)O[C@@H]3O[C@@]4(C)CC[C@@H]1[C@]32OO4` (stereo partly specified) the SD50 was 1.62 mg/kg/day and the SD90 was 4.8 mg/kg/day.
With `C[C@@H]1CC[C@H]2[C@@H](C)C(Nc3ccccc3)O[C@@H]3O[C@@]4(C)CC[C@@H]1[C@]32OO4` (stereo partly specified) the SD50 was 2.63 mg/kg/day and the SD90 was 7.3 mg/kg/day.
For `COc1ccc(NC2O[C@@H]3O[C@@]4(C)CC[C@H]5[C@H](C)CC[C@@H]([C@H]2C)[C@@]35OO4)cc1` (stereo partly specified), the SD50 was 3.5 mg/kg/day and the SD90 was 11.23 mg/kg/day.
With `C[C@@H]1CC[C@H]2[C@@H](C)C(Nc3ccc(I)cc3)O[C@@H]3O[C@@]4(C)CC[C@@H]1[C@]32OO4` (stereo partly specified) the SD50 was 4.56 mg/kg/day and the SD90 was 11.03 mg/kg/day.
With `C[C@@H]1CC[C@H]2[C@@H](C)C(Nc3ccc(C(=O)O)cc3)O[C@@H]3O[C@@]4(C)CC[C@@H]1[C@]32OO4` (stereo partly specified) the SD50 was 1.36 mg/kg/day and the SD90 was 6.88 mg/kg/day.
With `C[C@@H]1CC[C@H]2[C@@H](C)C(Nc3ccc(Cl)cc3)O[C@@H]3O[C@@]4(C)CC[C@@H]1[C@]32OO4` (stereo partly specified) the SD50 was 1.77 mg/kg/day and the SD90 was 4.5 mg/kg/day.
In the case of `C[C@@H]1CC[C@H]2[C@@H](C)C(Nc3cccc(Br)c3)O[C@@H]3O[C@@]4(C)CC[C@@H]1[C@]32OO4` (stereo partly specified), the SD50 is reported as 3.4 mg/kg/day and the SD90 is reported as 5.38 mg/kg/day.
`C[C@@H]1CC[C@H]2[C@@H](C)C(=O)O[C@@H]3O[C@@]4(C)CC[C@@H]1[C@]32OO4` [ARTEMISININ] gave an SD50 of 5.13 mg/kg/day.
